Experimental data reported in patent US4616086A, “Piperazine-substituted aryl and aralkyl carboxylic acids useful for treating infirmaties caused by excess lipids or thrombocyte” (Boehringer Mannheim GmbH, priority 1981, dated 1986).
Read-outs that look alike come from different tables or passages of the source.

What was measured:
[1] = tested on: cholesterol and triglyceride levels in the serum; assay: Lowering of Lipid Levels (cholesterol and triglyceride levels in the serum of male rats of normal metabolism, 7 days); type: in vivo; details: 100 mg/kg/d for 7 days in methyl cellulose suspension, serum 3 hours after last dose, in comparison to control; for inhibition in vivo at 100 mg/kg/day: Rattus norvegicus, po
Method: In each case, 10 male rats of normal metabolism were administered the test substance for 7 days in a dosage of 100 mg/kg/d in methyl cellulose suspension. At the end of the experiment, 3 hours after the last does was administered, the cholesterol and triglyceride levels in the serum were determined. The changes are given in Table I expressed as a percentage in comparison to control for a representative selection of compounds.

thrombocyte aggregation = assay: Inhibition of Aggregation (Born test, adrenalin-induced thrombocyte aggregation, platelet-rich plasma); type: cell-based, human; details: for % of inhibition of thrombocyte aggregation: human PRP, adrenalin 5×10^-6 mol/l, 2nd phase, test concentration 14^-4 mol/l [sic]
Method: Venous blood from subjects of normal metabolism is mixed with sodium citrate (9:1). The erythrocytes are settled by centrifugation at 150 g. The thrombocytes are concentrated in the supernatant. This supernatant is referred to as platelet-rich plasma (PRP). An aliquot of the PRP is placed in the cell of an aggregometer (Universal Aggregometer mfd. by Braun Melsungen) and there stirred by means of a small magnet. The substance to be tested is added in an aqueous solution (pH approx. 7). Changes in the light transmission in the suspension are continuously registered by a recorder. After spontaneous aggregation ends, aggregation is triggered by the addition of adrenalin (end concentration 5×10^-6 mol/l). Larger clumps of thrombocytes form and this causes the transmission of light through the suspension to increase.
The adrenalin-induced aggregation takes place in two phases, i.e., the light transmission first increases, then briefly remains steady, and then again increases. Only the second phase of the aggregation can be influenced by aggregation inhibitors.
With the same PRP, aggregation is induced with adrenalin after addition of the test substance and the course of the aggregation is registered with the recorder. The angle of the 2nd phase from the horizontal is again determined and the ratio of the two angles gives the percentage of inhibition of the 2nd phase of the thrombocyte aggregation.
All substances were tested in a concentration of 14^-4 mol/l in determining their aggregation inhibiting action.

[2] = read-out: % of reduction of cholesterol
[3] = read-out: % of reduction of triglycerides
[4] = Homo sapiens, read-out: inhibition of the 2nd phase of thrombocyte aggregation (standard)

CC(CN1CCN(CCc2ccc(C(=O)O)cc2)CC1)Oc1ccc([N+](=O)[O-])cc1 (centres unmarked) [34 s]
inhibition in vivo at 100 mg/kg/day [1, 2]: 47% | inhibition in vivo at 100 mg/kg/day [1, 3]: 21%

O=C(O)Cc1ccc(N2CCN(S(=O)(=O)c3ccccc3)CC2)cc1 [50 o]
inhibition in vivo at 100 mg/kg/day [1, 2]: 26% | inhibition in vivo at 100 mg/kg/day [1, 3]: 14%

CCOC(=O)c1ccc(N2CCNCC2)cc1 [Example 1, Ethyl 4-(piperazin-1-yl)-benzoate]
hygroscopicity (hydrochloride): hydroscopic

O=C(O)Cc1ccc(CCN2CCN(S(=O)(=O)c3ccccc3)CC2)cc1 [50 g]
inhibition in vivo at 100 mg/kg/day [1, 2]: 28% | inhibition in vivo at 100 mg/kg/day [1, 3]: 9%

COc1ccc(OC(C)CN2CCN(CCc3ccc(C(=O)O)cc3)CC2)cc1 (centres unmarked) [33 f]
% of reduction of cholesterol [1]: 37% | % of reduction of triglycerides [1]: 42%

CCOC(=O)c1ccc(CCCN2CCN(C(=O)c3ccc(Cl)cc3)CC2)cc1 [55 b]
inhibition in vivo at 100 mg/kg/day [1, 2]: 33% | inhibition in vivo at 100 mg/kg/day [1, 3]: 3%

CCCCCCCCCCCCCCCCN1CCN(c2ccc(CCC(=O)O)cc2)CC1 [Example 58, 3-[4-(1-n-Hexadecylpiperazin-4-yl)-phenyl]-propionic acid]
inhibition in vivo at 100 mg/kg/day [1, 2]: 17% | inhibition in vivo at 100 mg/kg/day [1, 3]: 6%

O=C(O)c1ccc(CCN2CCN(C(=O)c3ccc(Cl)cc3)CC2)cc1 [33 i]
% of reduction of cholesterol [1]: 41% | % of reduction of triglycerides [1]: 24%

O=C(O)Cc1ccc(CCN2CCN(S(=O)(=O)c3ccc(Cl)cc3)CC2)cc1 [49 e]
inhibition in vivo at 100 mg/kg/day [1, 2]: 41% | inhibition in vivo at 100 mg/kg/day [1, 3]: 8%

O=C(O)c1ccc(N2CCN(CCCc3ccccc3)CC2)cc1 [13 i]
inhibition in vivo at 100 mg/kg/day [1, 2]: 38% | inhibition in vivo at 100 mg/kg/day [1, 3]: 15%

O=C(O)c1ccc(CCN2CCN(S(=O)(=O)c3ccc(Cl)cc3)CC2)cc1 [33 o]
inhibition in vivo at 100 mg/kg/day [1, 2]: 35% | inhibition in vivo at 100 mg/kg/day [1, 3]: 13%

CC(CN1CCN(c2ccc(C=CC(=O)O)cc2)CC1)Oc1ccccc1 (centres unmarked) [65 d1]
inhibition in vivo at 100 mg/kg/day [1, 2]: 5% | inhibition in vivo at 100 mg/kg/day [1, 3]: 20%

CCCCOC(=O)CCc1ccc(N2CCN(C(=O)C=Cc3ccc(Cl)cc3)CC2)cc1 [Example 55, n-Butyl 3-{4-[1-(4-chlorocinnamoyl)-piperazin-4-yl]-phenyl}-propionate]
light sensitivity: light-sensitive

CC(C)(C)c1cc(C=CC(=O)N2CCN(CCc3ccc(CC(=O)O)cc3)CC2)cc(C(C)(C)C)c1O [50 f]
inhibition in vivo at 100 mg/kg/day [1, 2]: 40% | inhibition in vivo at 100 mg/kg/day [1, 3]: 16%

CS(=O)(=O)N1CCN(CCc2ccc(C(=O)O)cc2)CC1 [33 m]
inhibition in vivo at 100 mg/kg/day [1, 2]: 20% | inhibition in vivo at 100 mg/kg/day [1, 3]: 30%

O=C(O)c1ccc(CCN2CCN(c3ccc(Oc4ccccc4)cc3)CC2)cc1 [33 r]
inhibition in vivo at 100 mg/kg/day [1, 2]: 33% | inhibition in vivo at 100 mg/kg/day [1, 3]: 15%

CC(Cc1ccc(Cl)cc1)CN1CCN(CCc2ccc(C(=O)O)cc2)CC1 (centres unmarked) [33 u]
inhibition in vivo at 100 mg/kg/day [1, 2]: 28% | inhibition in vivo at 100 mg/kg/day [1, 3]: 32%

CC(=O)Oc1ccccc1C(=O)O [acetylsalicylic acid, reference compound]
inhibition at 50 µM (thrombocyte aggregation; [4]): 0% | inhibition at 100 µM (thrombocyte aggregation; [4]): 100%

O=C(O)c1ccc(CCN2CCN(CC=Cc3ccc(Cl)cc3)CC2)cc1 [34 c]
% of inhibition of thrombocyte aggregation (thrombocyte aggregation): 7% | inhibition in vivo at 100 mg/kg/day [1, 2]: 30% | inhibition in vivo at 100 mg/kg/day [1, 3]: 40%

O=C(O)c1ccc(CCN2CCN(CCOc3ccccc3)CC2)cc1 [33 c]
% of inhibition of thrombocyte aggregation (thrombocyte aggregation): 40% | inhibition in vivo at 100 mg/kg/day [1, 2]: 13% | inhibition in vivo at 100 mg/kg/day [1, 3]: 11%

CC(C)(C)c1cc(CCN2CCN(c3ccc(CC(=O)O)cc3)CC2)cc(C(C)(C)C)c1O [50 j]
inhibition in vivo at 100 mg/kg/day [1, 2]: 40% | inhibition in vivo at 100 mg/kg/day [1, 3]: 0%

O=C(O)c1ccc(CCN2CCN(CC=Cc3ccc([N+](=O)[O-])cc3)CC2)cc1 [Example 34o, 4-{2-[1-(4-nitrocinnamyl)-piperazin-4-yl]-ethyl}-benzoic acid]
light sensitivity: Light sensitive

CC(C)(C)c1cc(CCC(=O)N2CCN(CCc3ccc(C(=O)O)cc3)CC2)cc(C(C)(C)C)c1O [33 l]
% of reduction of cholesterol [1]: 38% | % of reduction of triglycerides [1]: 22%

CC(CN1CCN(CCc2ccc(C(=O)O)cc2)CC1)Oc1ccccc1 (centres unmarked) [33 d]
% of inhibition of thrombocyte aggregation (thrombocyte aggregation): 6% | % of reduction of cholesterol [1]: 43% | % of reduction of triglycerides [1]: 41%

O=C(O)c1ccc(CCN2CCN(Cc3ccccc3Cl)CC2)cc1 [34 i]
% of inhibition of thrombocyte aggregation (thrombocyte aggregation): 100% | % of reduction of cholesterol [1]: 21% | % of reduction of triglycerides [1]: 10%

O=C(O)c1ccc(CCN2CCN(Cc3ccc(Cl)cc3)CC2)cc1 [33 b]
% of inhibition of thrombocyte aggregation (thrombocyte aggregation): 19% | inhibition in vivo at 100 mg/kg/day [1, 2]: 40% | inhibition in vivo at 100 mg/kg/day [1, 3]: 30%

CC(=Cc1ccc(CCN2CCN(C(=O)c3ccc(Cl)cc3)CC2)cc1)C(=O)O [67 d1]
inhibition in vivo at 100 mg/kg/day [1, 2]: 37% | inhibition in vivo at 100 mg/kg/day [1, 3]: 9%
